5 compounds from PMC11946187 (Viruses, 2025) can be followed below.

What is called IC50 is the concentration that gives 50% inhibition.

The target of assay [1] is IBV endonuclease (full-length IBV RdRp complex PA/PB1/PB2) (Influenza B virus, UniProt Q5V8Z9). Kind of assay: biochemical.
Assay [2] has as its target SFTSV endonuclease (full-length L protein) (Dabie bandavirus, UniProt I0DF35). The assay is described as follows: biochemical. Set-up: species or system severe fever with thrombocytopenia syndrome virus.
Assay [3] addresses SNV endonuclease (full-length L protein) (Sin Nombre orthohantavirus, UniProt A0A059WLS4). The assay is described as follows: biochemical. Details: species or system Sin Nombre virus.
A further assay deals with IBV RdRp (RNA synthesis). It counts as biochemical, influenza B virus.
Assay [4] deals with SFTSV L protein (RNA synthesis) (Dabie bandavirus, UniProt I0DF35). In kind it is biochemical, severe fever with thrombocytopenia syndrome virus.
Assay [5] relates to SNV L protein (RNA synthesis). It counts as biochemical, Sin Nombre virus.

“Also recorded” adds a separate entry of the source. Where two headings read alike, the source gives them in different places.

Regarding `O=C1c2c(O)c(=O)ccn2N([C@@H]2c3ccccc3SCc3c2ccc(F)c3F)[C@@H]2COCCN12` [BXA, Baloxavir acid, reference compound], the IC50 in assay [1] (IC50 (μM) IBV (Figure 7B)) is 0.21 ± 0.006 µM; in assay [1] (IC50, endonuclease activity of IBV), 0.209 µM; in assay [2] (IC50 (μM) SFTSV (Figure 7B)), 16 µM; in assay [2] (IC50, SFTSV endonuclease activity), 16.5 µM; in assay [3] (IC50 (μM) SNV (Figure 7B)), greater than 100 µM; in assay [3] (IC50, SNV endonuclease activity) it was 622 µM. Also, the “concentration from which inhibition of SNV endonuclease became evident” value in assay [3] is ~ 250 µM. In addition, the “inhibition of RNA synthesis by IBV” value in the assay with IBV RdRp (RNA synthesis) is given as “lack of inhibition of; also recorded: did not inhibit RNA synthesis”. The “inhibition of RNA synthesis by SFTSV” value in assay [4] is given as “lack of inhibition of; also recorded: did not inhibit RNA synthesis”. In addition, the “inhibition of RNA synthesis by SNV” value in assay [5] is listed as “lack of inhibition of; also recorded: did not inhibit RNA synthesis”.
Regarding `O=C1c2c(O)c(=O)ccn2N(C2c3ccccc3SCc3c2ccc(F)c3F)C2COCCN12` [kCOT909, (R)-12-((R)-7,8-difluoro-6,11-dihydrodibenzo[b,e]thiepin-11-yl)-7-hydroxy-3,4,12,12a-tetrahydro-1H-[1,4]oxazino[3,4c]pyrido[2,1-f] [1,2,4]triazine-6,8-dione], the half-inhibitory concentration (IC50) in assay [1] (IC50 (μM) IBV (Figure 7B)) is 0.32 ± 0.006 µM; in assay [2] (IC50 (μM) SFTSV (Figure 7B)), greater than 100 µM; in assay [3] (IC50 (μM) SNV (Figure 7B)), greater than 100 µM. In addition, the “inhibition of RNA synthesis by IBV” value with IBV RdRp (RNA synthesis) is “lack of inhibition of RNA synthesis”. The “inhibition of RNA synthesis by SFTSV” value in assay [4] was “lack of inhibition of RNA synthesis”. In assay [5], the “inhibition of RNA synthesis by SNV” value is given as “lack of inhibition of RNA synthesis”.
Take `O=C1c2c(O)c(=O)ccn2N([C@@H]2c3ccccc3CSc3ccccc32)[C@@H]2COCCN12` [kCOT912, (R)-12-((R)-6,11-dihydrodibenzo[b,e]thiepin-11-yl)-7-hydroxy-3,4,12,12a-tetrahydro-1H-[1,4]oxazino[3,4-c]pyrido[2,1-f][1,2,4]triazine-6,8-dione]: the IC50 in assay [1], in assay [2] (IC50 (μM) SFTSV (Figure 7B)) and in assay [3] (IC50 (μM) SNV (Figure 7B)) was greater than 100 µM in each case. For the same compound, the “inhibition of RNA synthesis by IBV” value in the assay on IBV RdRp (RNA synthesis) was “lack of inhibition of RNA synthesis”. Also, the “inhibition of RNA synthesis by SFTSV” value in assay [4] is “lack of inhibition of RNA synthesis”. The “inhibition of RNA synthesis by SNV” value in assay [5] is “lack of inhibition of RNA synthesis”.
`O=C(O)c1cn2c(c(O)c1=O)C(=O)N1CCOC[C@H]1N2[C@@H]1c2ccccc2SCc2c1ccc(F)c2F` [kCOT923, (R)-12-((S)-7,8-difluoro-6,11-dihydrodibenzo[b,e]thiepin-11-yl)-7-hydroxy-6,8-dioxo-3,4,6,8,12,12a-hexahydro-1H-[1,4]oxazino[3,4-c]pyrido[2,1-f][1,2,4]triazine-9-carboxylic acid]: the IC50 in assay [1] amounted to 0.41 ± 0.02 µM; in assay [2] (IC50 (μM) SFTSV (Figure 7B)), 41 µM; in assay [3] (IC50 (μM) SNV (Figure 7B)), 13 ± 3 µM. In addition, the “inhibition of RNA synthesis by IBV” value in the assay on IBV RdRp (RNA synthesis) is “lack of inhibition of RNA synthesis”. Besides, the “inhibition of RNA synthesis by SFTSV” value in assay [4] was “lack of inhibition of RNA synthesis”. For the same compound, the “inhibition of RNA synthesis by SNV” value in assay [5] is listed as “lack of inhibition of RNA synthesis”.
For the compound `CC(C)N1CN([C@H]2c3ccccc3SCc3c2ccc(F)c3F)n2ccc(=O)c(O)c2C1=O` [kCPF855], the IC50 in assay [1] is 0.71 ± 0.03 µM; in assay [2] (IC50 (μM) SFTSV (Figure 7B)), greater than 100 µM; in assay [3] (IC50 (μM) SNV (Figure 7B)), greater than 100 µM. Further, the “inhibition of RNA synthesis by IBV” value in the assay with IBV RdRp (RNA synthesis) is “lack of inhibition of RNA synthesis”. Besides, in assay [4], the “inhibition of RNA synthesis by SFTSV” value is given as “lack of inhibition of RNA synthesis”. The “inhibition of RNA synthesis by SNV” value in assay [5] is listed as “lack of inhibition of RNA synthesis”.
